Experimental data from patent US20060025484A1 (priority 2003, published 2006).
Several values for one entry are separate records, joined by “and”; a condition that tells them apart may be missing. Equal entries are not always repeated.

How the values were obtained:
[1] = system: pancreatic carcinoma; assay: Clinical phase II study in patients with pancreatic cancer; type: in vivo, human; design: key to Effect: partial remission (PR); minor response (MR)
Excerpt: • Pancreatic carcinoma • Clinical study: • Phase II: ¼ partial remission (PR) (44 weeks)
+1 minor response (MR) (23 weeks)
A minor response was obtained in another patient.

[2] = system: pancreas lines; assay: In-vitro experiments with various pancreas lines; type: cell-based
Experimental: Inhibiting effects in the low μg/mL range were also found in in-vitro experiments conducted with various pancreas lines, an inhibiting effect normally being achieved with an HECNU concentration of less than 10 μg/mL.

[3] = system: tumors of the head and neck; assay: In-vitro experiments on tumors of the head and neck; type: cell-based
[4] = system: human tumor xenograft models; assay: Subcutaneously implanted human tumor xenograft models in the naked mouse; type: in vivo; details: s.c. human xenografts: soft tissue sarcomas, testicular tumors, thymomas, melanomas, mammary carcinomas, lung tumors, Wilms' tumors, renal carcinomas
Excerpt: Furthermore, the activity of HECNU has also been investigated in a number of subcutaneously implanted human tumor xenograft models in the naked mouse. […] These included soft tissue sarcomas, testicular tumors, thymomas, melanomas, mammary carcinomas, tumors of the lung, Wilms' tumors and renal carcinomas.

[5] = Water solubility; type: physicochemical
Excerpt: (§1) It is known that bis-(2-chloroethyl)-1-nitrosourea (hereinafter also referred to as BCNU) can be used in the treatment of various types of cancer. BCNU is lipophilic but it has a low solubility in water, so that additional solvents such as ethanol must be used in application. […] There has therefore been a search for alternatives to BCNU.

[6] = Organ toxicity (bone marrow, lungs, kidney); type: in vivo; details: in comparison with BCNU
Excerpt: as §1
(§2) It is assumed that this is attributable to the fact that when HECNU is used, there cannot be any carbamoyl reactions in the body because no carbamoylating metabolite is formed in its degradation in the body.

[7] = molecular target: T1, glutathione reductase (Homo sapiens, UniProt P00390); assay: Inhibition of glutathione reductase in the lungs; type: biochemical
T1 construct: from tissue; host or cells: lungs
T1 sequence (P00390 44-522): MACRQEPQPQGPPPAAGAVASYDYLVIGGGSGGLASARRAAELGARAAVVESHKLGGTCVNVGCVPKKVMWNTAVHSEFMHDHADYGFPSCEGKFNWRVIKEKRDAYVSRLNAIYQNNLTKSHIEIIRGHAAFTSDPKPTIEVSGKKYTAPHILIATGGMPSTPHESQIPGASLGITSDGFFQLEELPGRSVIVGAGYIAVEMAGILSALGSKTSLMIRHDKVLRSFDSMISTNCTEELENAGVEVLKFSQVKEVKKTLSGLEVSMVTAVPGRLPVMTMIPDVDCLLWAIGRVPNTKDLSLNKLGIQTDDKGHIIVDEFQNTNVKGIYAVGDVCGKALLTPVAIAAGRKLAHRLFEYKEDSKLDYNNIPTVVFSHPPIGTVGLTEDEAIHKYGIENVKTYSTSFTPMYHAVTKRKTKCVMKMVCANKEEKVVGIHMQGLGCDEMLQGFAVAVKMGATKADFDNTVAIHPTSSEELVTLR
Excerpt: as §2

[8] = Carcinogenicity; type: in vivo; details: in comparison with BCNU
Excerpt: as §2

[9] = Gastrointestinal toxicity in patients; type: in vivo, human; details: nausea and vomiting in patients
[10] = system: gastric carcinomas; details: phase II; cited from earlier work
[11] = system: colorectal carcinoma; details: phase II; cited from earlier work
[12] = system: malignant brain tumors; details: phase II; cited from earlier work
[13] = system: malignant supratentorial gliomas; details: cited from earlier work
[14] = single patient with pancreas tumor, dose 100 mg/m^2

In the case of `O=NN(CCCl)C(=O)NCCO` [HECNU, 1-(2-chloroethyl)-1-nitroso-3-(2-hydroxyethyl)urea], the “Partial remission, share of treated patients” value ([1]; four treated patients with pancreatic cancer) was “¼”, the Effect [1, 14] was “PR and MR” and the “Time to P (weeks)” value [1, 14] was 44 weeks and 23 weeks. For the same compound, the “HECNU concentration achieving an inhibiting effect” value [2] was “less than 10 μg/mL”, the “Inhibiting effect in vitro” value [3] was “an inhibiting effect was also achieved” and the “Inhibiting effect on tumor growth” value [4] was “good to very good inhibiting effects on tumor growth”. The Water solubility [5] was “good water solubility”, the “Bone marrow, pulmonary and renal toxicity” value [6] was “greatly reduced bone marrow toxicity, pulmonary toxicity and renal toxicity” and the “Inhibition of glutathione reductase” value [7] was “does not inhibit glutathione reductase”. The Carcinogenicity [8] was “much weaker carcinogen than BCNU”, the Gastrointestinal toxicity [9] was “only a low gastrointestinal toxicity” and the “Partial remission, patients treated” value [10] was 31%. For the same compound, the “Activity and response rate” value [11] was “only marginal activities and response rates”, the Antineoplastic activity [12] was “significant antineoplastic activity” and the Toxicity profile ([13]; compared with other nitrosoureas) was “more favorable toxicity profile in comparison with other nitrosoureas”. The Activity ([13]; phase II, malignant supratentorial gliomas) was “demonstrated its activity”.
